Test results published in ChEMBL document CHEMBL4507308 (2021).
Values belong to the compound of their own block, whether it stands above or below them. The source made the active and inactive calls. The rule behind the calls is not given here.

What was measured:
[1] = molecular target: 5-hydroxytryptamine receptor 1B (Homo sapiens) (UniProt P28222); conditions: Compound concentration 10.0 uM
Rattus norvegicus = organism: Rattus norvegicus; conditions: Compound concentration 10.0 uM
[2] = molecular target: Sigma intracellular receptor 2 (Homo sapiens) (UniProt Q5BJF2); conditions: Compound concentration 10.0 uM
[3] = molecular target: 5-hydroxytryptamine receptor 2A (Homo sapiens) (UniProt P28223); conditions: Compound concentration 10.0 uM
[4] = molecular target: T1, Sodium-dependent dopamine transporter (Homo sapiens, UniProt Q01959); conditions: Compound concentration 10.0 uM
[5] = molecular target: 5-hydroxytryptamine receptor 1A (Homo sapiens) (UniProt P08908); conditions: Compound concentration 10.0 uM
[6] = molecular target: Histamine H1 receptor (Homo sapiens) (UniProt P35367); conditions: Compound concentration 10.0 uM
[7] = molecular target: 5-hydroxytryptamine receptor 6 (Homo sapiens) (UniProt P50406); conditions: Compound concentration 10.0 uM
[8] = molecular target: Beta-1 adrenergic receptor (Homo sapiens) (UniProt P08588); conditions: Compound concentration 10.0 uM
[9] = molecular target: Alpha-1B adrenergic receptor (Homo sapiens) (UniProt P35368); conditions: Compound concentration 10.0 uM
[10] = molecular target: Beta-2 adrenergic receptor (Homo sapiens) (UniProt P07550); conditions: Compound concentration 10.0 uM
[11] = molecular target: Alpha-1A adrenergic receptor (Homo sapiens) (UniProt P35348); conditions: Compound concentration 10.0 uM
[12] = molecular target: T2, 5-hydroxytryptamine receptor 2B (Homo sapiens, UniProt P41595); conditions: Compound concentration 10.0 uM
Activin receptor type-1B [13] = molecular target: T3, Activin receptor type-1B (Homo sapiens, UniProt P36896); assay: NanoBRET (SGC Frankfurt) (ACVR1B)
T3 sequence (P36896 whole entry): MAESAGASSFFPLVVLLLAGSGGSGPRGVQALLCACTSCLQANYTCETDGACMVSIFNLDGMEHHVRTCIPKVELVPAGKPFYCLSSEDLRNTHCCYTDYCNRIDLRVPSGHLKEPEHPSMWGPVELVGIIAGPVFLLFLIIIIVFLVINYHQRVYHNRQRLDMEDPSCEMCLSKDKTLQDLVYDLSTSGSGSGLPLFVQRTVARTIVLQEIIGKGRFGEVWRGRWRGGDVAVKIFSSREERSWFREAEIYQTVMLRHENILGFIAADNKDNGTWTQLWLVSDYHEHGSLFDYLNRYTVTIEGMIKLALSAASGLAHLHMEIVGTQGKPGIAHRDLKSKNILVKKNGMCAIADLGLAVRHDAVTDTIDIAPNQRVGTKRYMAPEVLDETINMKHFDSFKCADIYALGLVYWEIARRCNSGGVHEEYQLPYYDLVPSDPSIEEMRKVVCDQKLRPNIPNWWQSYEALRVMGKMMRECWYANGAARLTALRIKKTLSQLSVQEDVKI

TGF-beta receptor type-1 = TGF-beta receptor type-1 (Homo sapiens, UniProt P36897); assay: NanoBRET (SGC Frankfurt) (TGFBR1)
[14] = molecular target: T2, 5-hydroxytryptamine receptor 2B; assay: GPCRScan assay: inhibition of 5-HT2B; set-up: radioligand conc. used [nm] 1.0 – 2.0, parental cells stable HEK
[15] = molecular target: 5-hydroxytryptamine receptor 5A (Homo sapiens) (UniProt P47898); conditions: Compound concentration 10.0 uM
[16] = molecular target: T4, GABA-A receptor; anion channel (Rattus norvegicus) (UniProt O09028+P15431+P18506+P18508+P19969+P20236+P23574+P23576+P28471+P28473+P30191+P62813+P63079+P63138+Q91ZM7+Q9ES14); conditions: Compound concentration 10.0 uM
[17] = molecular target: Muscarinic acetylcholine receptor M1 (Homo sapiens) (UniProt P11229); conditions: Compound concentration 10.0 uM
[18] = molecular target: Sodium-dependent serotonin transporter (Homo sapiens) (UniProt P31645); conditions: Compound concentration 10.0 uM
[19] = molecular target: D(2) dopamine receptor (Homo sapiens) (UniProt P14416); conditions: Compound concentration 10.0 uM
[20] = molecular target: Muscarinic acetylcholine receptor M5 (Homo sapiens) (UniProt P08912); conditions: Compound concentration 10.0 uM
[21] = molecular target: D(1B) dopamine receptor (Homo sapiens) (UniProt P21918); conditions: Compound concentration 10.0 uM
[22] = molecular target: 5-hydroxytryptamine receptor 7 (Homo sapiens) (UniProt P34969); conditions: Compound concentration 10.0 uM
[23] = molecular target: Beta-3 adrenergic receptor (Homo sapiens) (UniProt P13945); conditions: Compound concentration 10.0 uM
[24] = molecular target: Alpha-2C adrenergic receptor (Homo sapiens) (UniProt P18825); conditions: Compound concentration 10.0 uM
[25] = molecular target: GABA-A receptor; anion channel; assay: GPCRScan assay: inhibition of GABAA/BZP; assay type: protein-complex assay, Rattus norvegicus; set-up: radioligand conc. used [nm] 0.6 – 4.0, parental cells brain tissue
[26] = molecular target: Alpha-2B adrenergic receptor (Homo sapiens) (UniProt P18089); conditions: Compound concentration 10.0 uM
[27] = molecular target: D(4) dopamine receptor (Homo sapiens) (UniProt P21917); conditions: Compound concentration 10.0 uM
[28] = molecular target: Muscarinic acetylcholine receptor M2 (Homo sapiens) (UniProt P08172); conditions: Compound concentration 10.0 uM
[29] = molecular target: Muscarinic acetylcholine receptor M3 (Homo sapiens) (UniProt P20309); conditions: Compound concentration 10.0 uM
[30] = molecular target: Alpha-2A adrenergic receptor (Homo sapiens) (UniProt P08913); conditions: Compound concentration 10.0 uM
[31] = molecular target: Histamine H3 receptor (Homo sapiens) (UniProt Q9Y5N1); conditions: Compound concentration 10.0 uM
[32] = molecular target: D(1A) dopamine receptor (Homo sapiens) (UniProt P21728); conditions: Compound concentration 10.0 uM
[33] = molecular target: 5-hydroxytryptamine receptor 2C (Homo sapiens) (UniProt P28335); conditions: Compound concentration 10.0 uM
[34] = molecular target: 5-hydroxytryptamine receptor 3A (Homo sapiens) (UniProt P46098); conditions: Compound concentration 10.0 uM
[35] = molecular target: Muscarinic acetylcholine receptor M4 (Homo sapiens) (UniProt P08173); conditions: Compound concentration 10.0 uM
[36] = molecular target: Alpha-1D adrenergic receptor (Homo sapiens) (UniProt P25100); conditions: Compound concentration 10.0 uM
[37] = molecular target: Tyrosine-protein kinase JAK1 (Homo sapiens, UniProt P23458); assay: NanoBRET (SGC Frankfurt) (JAK1)
[38] = molecular target: T1, Sodium-dependent dopamine transporter; assay: GPCRScan assay: inhibition of DAT; set-up: radioligand conc. used [nm] 3.6 – 16.0, parental cells stable HEK
[39] = molecular target: D(3) dopamine receptor (Homo sapiens) (UniProt P35462); conditions: Compound concentration 10.0 uM
[40] = molecular target: Epithelial discoidin domain-containing receptor 1 (Homo sapiens, UniProt Q08345); assay: NanoBRET (SGC Frankfurt) (DDR1)
[41] = molecular target: Histamine H4 receptor (Homo sapiens) (UniProt Q9H3N8); conditions: Compound concentration 10.0 uM
[42] = molecular target: Calcium/calmodulin-dependent protein kinase type 1B (Homo sapiens, UniProt Q6P2M8); assay: NanoBRET (SGC Frankfurt) (PNCK)
[43] = molecular target: T4, GABA-A receptor; anion channel (Rattus norvegicus); conditions: Compound concentration 10.0 uM; remark: listed apart in the source
[44] = molecular target: 5-hydroxytryptamine receptor 1D (Homo sapiens) (UniProt P28221); conditions: Compound concentration 10.0 uM
Activin receptor type-1B [45] = molecular target: T3, Activin receptor type-1B; assay: Radioactive kinase assay (ACVR1B)
[46] = molecular target: Histamine H2 receptor (Homo sapiens) (UniProt P25021); conditions: Compound concentration 10.0 uM
[47] = molecular target: 5-hydroxytryptamine receptor 1E (Homo sapiens) (UniProt P28566); conditions: Compound concentration 10.0 uM
Activin receptor type-1B [48] = molecular target: T3, Activin receptor type-1B; assay: Reporter gene assay (ACVR1B)
[49] = molecular target: Phosphatidylinositol 4,5-bisphosphate 3-kinase catalytic subunit alpha isoform (Homo sapiens, UniProt P42336); assay: NanoBRET (SGC Frankfurt) (PIK3CA)
Activin receptor type-1B [50] = molecular target: T3, Activin receptor type-1B; assay: Lathascreen (Takeda) (ACVR1B)

T2 sequence (P41595 whole entry): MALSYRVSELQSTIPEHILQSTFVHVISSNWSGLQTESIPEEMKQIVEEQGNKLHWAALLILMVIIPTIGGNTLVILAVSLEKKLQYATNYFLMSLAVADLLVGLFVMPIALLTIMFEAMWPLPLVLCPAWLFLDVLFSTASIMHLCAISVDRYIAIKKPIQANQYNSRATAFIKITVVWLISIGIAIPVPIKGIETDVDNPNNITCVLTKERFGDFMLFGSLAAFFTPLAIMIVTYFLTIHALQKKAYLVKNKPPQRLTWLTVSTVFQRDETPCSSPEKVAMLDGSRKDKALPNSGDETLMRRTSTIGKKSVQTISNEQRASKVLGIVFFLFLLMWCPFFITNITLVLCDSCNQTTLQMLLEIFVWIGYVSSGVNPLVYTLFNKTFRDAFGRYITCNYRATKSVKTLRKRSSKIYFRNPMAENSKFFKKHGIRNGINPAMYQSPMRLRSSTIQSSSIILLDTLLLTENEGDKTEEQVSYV
T1 sequence (Q01959 whole entry): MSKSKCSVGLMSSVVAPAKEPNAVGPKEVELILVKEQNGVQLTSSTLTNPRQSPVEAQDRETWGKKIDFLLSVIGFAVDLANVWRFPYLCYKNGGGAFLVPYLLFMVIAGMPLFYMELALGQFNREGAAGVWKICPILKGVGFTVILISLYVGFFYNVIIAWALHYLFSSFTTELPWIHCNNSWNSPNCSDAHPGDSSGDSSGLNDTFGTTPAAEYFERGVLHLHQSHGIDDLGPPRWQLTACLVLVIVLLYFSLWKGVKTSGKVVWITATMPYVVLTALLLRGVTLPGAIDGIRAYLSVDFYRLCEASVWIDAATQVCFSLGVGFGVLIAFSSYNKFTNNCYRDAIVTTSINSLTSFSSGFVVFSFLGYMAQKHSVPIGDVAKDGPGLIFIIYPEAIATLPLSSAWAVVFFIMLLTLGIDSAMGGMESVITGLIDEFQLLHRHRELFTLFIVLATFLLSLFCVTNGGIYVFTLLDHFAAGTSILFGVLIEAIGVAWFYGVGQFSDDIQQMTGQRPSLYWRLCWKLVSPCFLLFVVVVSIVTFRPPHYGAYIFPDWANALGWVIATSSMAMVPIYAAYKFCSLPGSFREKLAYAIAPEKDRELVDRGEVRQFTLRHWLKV
Chain of 5-hydroxytryptamine receptor 6 (Homo sapiens) (P50406 whole entry): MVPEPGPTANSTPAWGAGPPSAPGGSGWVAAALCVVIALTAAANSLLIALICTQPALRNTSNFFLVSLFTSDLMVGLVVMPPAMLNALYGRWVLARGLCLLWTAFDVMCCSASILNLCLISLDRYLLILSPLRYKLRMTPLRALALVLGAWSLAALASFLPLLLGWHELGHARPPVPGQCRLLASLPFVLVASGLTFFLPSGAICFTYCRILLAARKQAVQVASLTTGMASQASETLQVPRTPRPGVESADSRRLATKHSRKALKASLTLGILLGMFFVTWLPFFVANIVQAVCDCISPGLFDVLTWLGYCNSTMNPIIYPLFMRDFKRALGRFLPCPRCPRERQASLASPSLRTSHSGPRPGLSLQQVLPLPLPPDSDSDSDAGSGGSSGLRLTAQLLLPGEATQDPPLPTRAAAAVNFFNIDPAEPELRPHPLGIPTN
Chain of Sodium-dependent serotonin transporter (Homo sapiens) (P31645 whole entry, looked up): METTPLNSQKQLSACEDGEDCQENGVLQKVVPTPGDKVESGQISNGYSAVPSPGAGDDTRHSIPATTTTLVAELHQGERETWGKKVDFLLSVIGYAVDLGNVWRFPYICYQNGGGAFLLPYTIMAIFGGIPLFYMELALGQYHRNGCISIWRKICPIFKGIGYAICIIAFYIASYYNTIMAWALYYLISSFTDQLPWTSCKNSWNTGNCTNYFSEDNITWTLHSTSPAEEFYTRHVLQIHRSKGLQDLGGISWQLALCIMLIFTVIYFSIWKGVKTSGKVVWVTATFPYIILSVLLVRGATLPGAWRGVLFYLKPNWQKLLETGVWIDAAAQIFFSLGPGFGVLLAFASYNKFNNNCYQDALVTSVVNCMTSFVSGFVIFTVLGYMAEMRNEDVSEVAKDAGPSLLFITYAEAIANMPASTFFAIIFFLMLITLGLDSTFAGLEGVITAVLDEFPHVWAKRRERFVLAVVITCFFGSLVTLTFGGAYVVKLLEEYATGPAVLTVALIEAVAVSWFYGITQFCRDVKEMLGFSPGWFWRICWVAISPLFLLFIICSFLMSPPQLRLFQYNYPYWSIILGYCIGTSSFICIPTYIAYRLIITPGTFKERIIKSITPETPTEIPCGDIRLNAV
Chain of 5-hydroxytryptamine receptor 1B (Homo sapiens) (P28222 whole entry): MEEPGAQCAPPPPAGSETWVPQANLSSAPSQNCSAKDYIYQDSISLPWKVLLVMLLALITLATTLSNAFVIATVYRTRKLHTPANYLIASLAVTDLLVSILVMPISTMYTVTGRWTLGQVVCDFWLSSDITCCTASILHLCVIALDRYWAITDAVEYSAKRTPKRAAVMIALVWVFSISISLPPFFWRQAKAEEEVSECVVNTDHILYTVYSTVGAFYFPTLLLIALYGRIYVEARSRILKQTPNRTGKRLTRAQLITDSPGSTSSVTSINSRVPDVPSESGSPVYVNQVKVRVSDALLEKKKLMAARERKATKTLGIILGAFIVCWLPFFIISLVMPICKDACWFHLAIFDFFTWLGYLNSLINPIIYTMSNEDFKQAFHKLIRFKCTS
Chain of Alpha-1A adrenergic receptor (Homo sapiens) (P35348 whole entry): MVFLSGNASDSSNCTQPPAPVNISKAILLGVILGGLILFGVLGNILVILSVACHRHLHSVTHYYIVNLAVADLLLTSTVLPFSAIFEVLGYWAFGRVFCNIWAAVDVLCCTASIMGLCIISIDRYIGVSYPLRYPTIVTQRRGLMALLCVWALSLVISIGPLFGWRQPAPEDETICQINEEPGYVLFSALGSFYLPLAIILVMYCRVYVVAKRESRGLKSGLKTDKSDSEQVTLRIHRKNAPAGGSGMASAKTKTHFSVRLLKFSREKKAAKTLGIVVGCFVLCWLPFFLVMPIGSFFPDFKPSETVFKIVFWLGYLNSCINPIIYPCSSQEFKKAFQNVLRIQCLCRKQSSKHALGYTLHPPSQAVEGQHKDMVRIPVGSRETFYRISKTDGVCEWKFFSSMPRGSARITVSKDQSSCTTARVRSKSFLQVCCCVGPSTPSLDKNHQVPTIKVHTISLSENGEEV
Chain of Muscarinic acetylcholine receptor M1 (Homo sapiens) (P11229 whole entry): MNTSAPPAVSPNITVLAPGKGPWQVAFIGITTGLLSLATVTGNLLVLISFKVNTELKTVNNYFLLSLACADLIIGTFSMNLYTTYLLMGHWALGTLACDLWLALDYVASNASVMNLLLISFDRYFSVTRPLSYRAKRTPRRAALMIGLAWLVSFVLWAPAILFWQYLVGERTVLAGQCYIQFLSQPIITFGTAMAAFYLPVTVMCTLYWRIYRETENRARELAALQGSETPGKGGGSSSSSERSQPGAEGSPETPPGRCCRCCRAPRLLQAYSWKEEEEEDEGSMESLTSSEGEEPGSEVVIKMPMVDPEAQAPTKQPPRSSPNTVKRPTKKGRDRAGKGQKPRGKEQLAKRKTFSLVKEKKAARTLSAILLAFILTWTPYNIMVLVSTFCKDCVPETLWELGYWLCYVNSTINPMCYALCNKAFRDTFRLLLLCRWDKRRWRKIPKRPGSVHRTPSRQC
Chain of Sigma intracellular receptor 2 (Homo sapiens) (Q5BJF2 whole entry): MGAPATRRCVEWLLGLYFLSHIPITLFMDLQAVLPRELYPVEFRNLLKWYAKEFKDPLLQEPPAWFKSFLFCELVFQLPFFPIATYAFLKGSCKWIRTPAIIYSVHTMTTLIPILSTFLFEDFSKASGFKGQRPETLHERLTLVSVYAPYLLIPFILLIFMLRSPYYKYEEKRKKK
Chain of D(2) dopamine receptor (Homo sapiens) (P14416 whole entry): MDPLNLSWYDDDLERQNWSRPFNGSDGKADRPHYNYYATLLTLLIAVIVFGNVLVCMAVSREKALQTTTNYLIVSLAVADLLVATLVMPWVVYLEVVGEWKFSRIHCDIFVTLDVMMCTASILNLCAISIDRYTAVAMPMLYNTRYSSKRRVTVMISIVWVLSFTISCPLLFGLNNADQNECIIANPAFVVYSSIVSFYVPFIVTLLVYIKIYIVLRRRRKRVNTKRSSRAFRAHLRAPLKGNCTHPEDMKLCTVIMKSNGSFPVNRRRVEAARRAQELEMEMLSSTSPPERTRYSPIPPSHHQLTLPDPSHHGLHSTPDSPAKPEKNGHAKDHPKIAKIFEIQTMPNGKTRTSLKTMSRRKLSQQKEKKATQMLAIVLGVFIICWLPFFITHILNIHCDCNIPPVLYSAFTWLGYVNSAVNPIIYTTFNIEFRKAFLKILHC
Chain of 5-hydroxytryptamine receptor 2A (Homo sapiens) (P28223 whole entry): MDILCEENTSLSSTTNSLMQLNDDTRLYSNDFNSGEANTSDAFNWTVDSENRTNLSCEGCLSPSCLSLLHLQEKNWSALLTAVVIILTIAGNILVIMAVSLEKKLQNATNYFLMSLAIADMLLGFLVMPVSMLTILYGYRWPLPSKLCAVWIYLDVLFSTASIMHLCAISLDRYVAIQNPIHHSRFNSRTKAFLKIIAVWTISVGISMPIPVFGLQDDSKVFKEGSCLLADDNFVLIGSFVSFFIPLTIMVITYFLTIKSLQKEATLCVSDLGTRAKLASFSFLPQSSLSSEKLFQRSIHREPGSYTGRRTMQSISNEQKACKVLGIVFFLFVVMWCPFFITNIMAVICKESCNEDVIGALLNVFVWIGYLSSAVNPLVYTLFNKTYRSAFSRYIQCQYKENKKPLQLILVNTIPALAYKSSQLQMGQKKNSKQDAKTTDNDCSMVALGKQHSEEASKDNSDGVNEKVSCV
Chain of 5-hydroxytryptamine receptor 5A (Homo sapiens) (P47898 whole entry): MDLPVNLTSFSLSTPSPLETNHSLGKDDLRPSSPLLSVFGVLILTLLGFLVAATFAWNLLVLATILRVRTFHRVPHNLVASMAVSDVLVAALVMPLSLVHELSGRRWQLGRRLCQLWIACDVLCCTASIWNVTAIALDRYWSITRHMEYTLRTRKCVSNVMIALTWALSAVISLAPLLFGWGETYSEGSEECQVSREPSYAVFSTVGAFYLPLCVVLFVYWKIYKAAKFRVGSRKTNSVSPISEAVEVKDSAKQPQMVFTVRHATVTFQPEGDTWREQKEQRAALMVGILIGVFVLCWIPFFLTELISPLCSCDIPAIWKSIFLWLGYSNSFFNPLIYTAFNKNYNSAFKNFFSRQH

- inhibition [1]: -7.07%
- inhibition (Rattus norvegicus): 27.1%
- inhibition [2]: 41.6%
- inhibition [3]: 11.2%
- inhibition [4]: -4.34%
- inhibition [5]: 12%
- inhibition [6]: -2.43%
- inhibition [7]: 14.1%
- inhibition [8]: 25.8%
- inhibition [9]: 5.45%
- inhibition [10]: 16.7%
- inhibition [11]: 0.25%
- inhibition [12]: 72%
- IC50 (Activin receptor type-1B [13]): > 10000 nM (not active)
- IC50 (TGF-beta receptor type-1): > 10000 nM (not active)
- Ki ([14]; read-out: Ki): 1590 nM
- Ki ([14]; read-out: pKi (converted)): 1570 nM
- inhibition [15]: -0.66%
- inhibition [16]: 50.2%
- inhibition [17]: -1.17%
- inhibition [18]: 14.3%
- inhibition [19]: -1.99%
- inhibition [20]: 1.56%
- inhibition [21]: 6.12%
- inhibition [22]: 12.1%
- inhibition [23]: 9.94%
- inhibition [24]: 17.9%
- Ki [25]: 2750 nM
- inhibition [26]: 17.3%
- inhibition [27]: -1.38%
- inhibition [28]: 14.4%
- inhibition [29]: -5.28%
- inhibition [30]: 3.1%
- inhibition [31]: -8.16%
- inhibition [32]: -2.08%
- inhibition [33]: 10.2%
- inhibition [34]: 19.9%
- inhibition [35]: 3.09%
- inhibition [36]: 2.71%
SMILES: Cc1cnc(-c2cc(Cl)ccc2F)cc1-n1c(=O)n(CC(N)=O)c2ccccc21 [Al11]

- IC50 [37]: > 20000 nM (not active)
- inhibition [1]: 19.5%
- inhibition (Rattus norvegicus): -8.98%
- inhibition [2]: -2.75%
- inhibition [3]: -0.869%
- Ki [38]: 10000 nM
- pKi [38]: 5
- inhibition [39]: 2.27%
- inhibition [4]: 87.6%
- IC50 [40]: > 20000 nM (not active)
- inhibition [5]: 22.9%
- inhibition [41]: 26.6%
- inhibition [6]: 0.849%
- inhibition [7]: -4.28%
- inhibition [9]: 3.76%
- IC50 [42]: > 20000 nM (not active)
- inhibition [10]: 13.9%
- inhibition [11]: -2.17%
- inhibition [12]: 70.5%
- inhibition [43]: 27.3%
- Ki ([14]; read-out: Ki): 1880 nM
- inhibition [15]: 16.8%
- inhibition [16]: 31.8%
- inhibition [44]: 5.53%
- inhibition [17]: -3.81%
- IC50 (Activin receptor type-1B [45]): 126 nM (active)
- inhibition [18]: 3.84%
- inhibition [46]: 6.53%
- inhibition [19]: -5.48%
- inhibition [20]: -5.69%
- inhibition [22]: 3.98%
- inhibition [23]: 3.94%
- inhibition [47]: -5.81%
- IC50 (Activin receptor type-1B [48]): 526 nM (active)
- inhibition [24]: -5.16%
- inhibition [26]: 18.1%
- inhibition [27]: 5.41%
- inhibition [28]: 2.23%
- inhibition [29]: -7.48%
- inhibition [30]: -0.767%
- inhibition [31]: 30.5%
- IC50 [49]: > 20000 nM (not active)
- IC50 (Activin receptor type-1B [50]): 1000 nM (active)
- inhibition [32]: 12.9%
- inhibition [33]: 15.5%
- inhibition [34]: -6.36%
- inhibition [35]: -3.08%
SMILES: Cc1cnc(-c2cc(Cl)ccc2F)cc1-n1c(=O)n(CC(N)=O)c2cnccc21 [TP-008]
